Test results published in the supplement of paper PMC10307832.

Tests used:
Experiment in all cases: relative viability (nuclei count vs DMSO), 5 days (fraction); higher = more cells survive
BEN = tested on: BEN
Method in brief: (§1)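 Relative viability divides the nuclei count in treated wells by that in vehicle wells. Lung cancer cell lines were seeded in 1536-well plates, dosed by pin tool the next day, and fixed and stained after 5 days in one step with final 0.05% Triton X-100, 1% formaldehyde and 1 ug/ml Hoechst. Dosing was a single drug or a fixed anchor-drug dose plus five library-drug doses (not always all listed) in √10 steps, and values are medians of duplicate plates imaged at 4×.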

CAL-12T = tested on: CAL-12T
Method in brief: as §1

H3255 = tested on: H3255
Method in brief: as §1

HARA = tested on: HARA
Method in brief: as §1

HCC-15 = tested on: HCC-15
Method in brief: as §1

HCC-366 = tested on: HCC-366
Method in brief: as §1

LC-2-ad = tested on: LC-2-ad
Method in brief: as §1

LOU-NH91 = tested on: LOU-NH91
Method in brief: as §1

LXF-289 = tested on: LXF-289
Method in brief: as §1

NCI-H1395 = tested on: NCI-H1395
Method in brief: as §1

NCI-H1651 = tested on: NCI-H1651
Method in brief: as §1

NCI-H1793 = tested on: NCI-H1793
Method in brief: as §1

NCI-H1915 = conditions: first compound 0.001 µM
Method in brief: as §1

Structure (SMILES): Cc1cn(-c2cc(NC(=O)c3ccc(C)c(Nc4nccc(-c5cccnc5)n4)c3)cc(C(F)(F)F)c2)cn1 [Nilotinib] + Nc1nc2[nH]cc(CCc3ccc(C(=O)N[C@@H](CCC(=O)O)C(=O)O)cc3)c2c(=O)[nH]1 [Pemetrexed] (partner 0.2 µM)
- relative viability (BEN; first compound 0.001 µM): 0.868
- relative viability (BEN; first compound 0.003162 µM): 0.715
- relative viability (BEN; first compound 0.01 µM): 0.614
- relative viability (BEN; first compound 0.03162 µM): 0.772
- relative viability (BEN; first compound 0.1 µM): 0.469
- relative viability (CAL-12T; first compound 0.001 µM): 0.977
- relative viability (CAL-12T; first compound 0.003162 µM): 1.48
- relative viability (CAL-12T; first compound 0.01 µM): 1.34
- relative viability (CAL-12T; first compound 0.03162 µM): 0.992
- relative viability (CAL-12T; first compound 0.1 µM): 1.22
- relative viability (H3255; first compound 0.001 µM): 0.528
- relative viability (H3255; first compound 0.003162 µM): 0.671
- relative viability (H3255; first compound 0.01 µM): 0.578
- relative viability (H3255; first compound 0.03162 µM): 0.579
- relative viability (H3255; first compound 0.1 µM): 0.523
- relative viability (HARA; first compound 0.001 µM): 0.311
- relative viability (HARA; first compound 0.003162 µM): 0.235
- relative viability (HARA; first compound 0.01 µM): 0.198
- relative viability (HARA; first compound 0.03162 µM): 0.184
- relative viability (HARA; first compound 0.1 µM): 0.214
- relative viability (HCC-15; first compound 0.001 µM): 0.213
- relative viability (HCC-15; first compound 0.003162 µM): 0.205
- relative viability (HCC-15; first compound 0.01 µM): 0.204
- relative viability (HCC-15; first compound 0.03162 µM): 0.18
- relative viability (HCC-15; first compound 0.1 µM): 0.162
- relative viability (HCC-366; first compound 0.001 µM): 0.157
- relative viability (HCC-366; first compound 0.003162 µM): 0.129
- relative viability (HCC-366; first compound 0.01 µM): 0.163
- relative viability (HCC-366; first compound 0.03162 µM): 0.106
- relative viability (HCC-366; first compound 0.1 µM): 0.115
- relative viability (LC-2-ad; first compound 0.001 µM): 0.248
- relative viability (LC-2-ad; first compound 0.003162 µM): 0.251
- relative viability (LC-2-ad; first compound 0.01 µM): 0.257
- relative viability (LC-2-ad; first compound 0.03162 µM): 0.251
- relative viability (LC-2-ad; first compound 0.1 µM): 0.248
- relative viability (LOU-NH91; first compound 0.001 µM): 0.376
- relative viability (LOU-NH91; first compound 0.003162 µM): 1.11
- relative viability (LOU-NH91; first compound 0.01 µM): 0.374
- relative viability (LOU-NH91; first compound 0.03162 µM): 0.384
- relative viability (LOU-NH91; first compound 0.1 µM): 0.403
- relative viability (LXF-289; first compound 0.001 µM): 0.836
- relative viability (LXF-289; first compound 0.003162 µM): 1.07
- relative viability (LXF-289; first compound 0.01 µM): 1.01
- relative viability (LXF-289; first compound 0.03162 µM): 0.878
- relative viability (LXF-289; first compound 0.1 µM): 0.519
- relative viability (NCI-H1395; first compound 0.001 µM): 1
- relative viability (NCI-H1395; first compound 0.01 µM): 0.607
- relative viability (NCI-H1395; first compound 0.03162 µM): 0.642
- relative viability (NCI-H1395; first compound 0.1 µM): 0.517
- relative viability (NCI-H1651; first compound 0.001 µM): 0.571
- relative viability (NCI-H1651; first compound 0.003162 µM): 0.616
- relative viability (NCI-H1651; first compound 0.01 µM): 0.732
- relative viability (NCI-H1651; first compound 0.03162 µM): 0.556
- relative viability (NCI-H1651; first compound 0.1 µM): 0.249
- relative viability (NCI-H1793; first compound 0.001 µM): 0.996
- relative viability (NCI-H1793; first compound 0.003162 µM): 0.965
- relative viability (NCI-H1793; first compound 0.01 µM): 1.07
- relative viability (NCI-H1793; first compound 0.03162 µM): 0.903
- relative viability (NCI-H1793; first compound 0.1 µM): 0.359
- relative viability (NCI-H1915): 0.435
